From patent US20170172450A1, “SYSTEM AND METHODS FOR QUANTITATIVELY DESCRIBING BIOPHYSICAL MARKERS” (STC.UNM, priority 2014, published 2017)

How the values were obtained:
[1] = dose of 300 mg/m^2; cited from earlier work
[2] = Gemcitabine incorporation into DNA of cells in pancreatic tumor and normal pancreas (punch biopsies, Advion assay); type: in vivo, human
Description: Pancreatic resection was performed using standard techniques and major surgical complications were defined as previously described. Gemcitabine was administered intravenously at 500 mg/m^2 for the first 2 patients (per IRB safety recommendations) and then subsequently at 1000 mg/m^2 with an infusion pump at a fixed dose rate of 10 mg/m^2/min (over 50 min and 100 min respectively) and was delivered at the start of operation and concluded prior to specimen removal. Serum samples were collected at regular intervals during the operation to determine gemcitabine pharmacokinetics.
Immediately after specimen collection, tumors were bivalved by a surgical pathologist and 4.0 mm punch biopsies were taken from the outer and inner portions of the tumors (median 4 samples per tumor) as well from as the normal pancreas. The punch biopsies were sent for quantitative analysis of the gemcitabine metabolite incorporation into the DNA of the cells within the pancreatic tumor (i.e., cancer and stromal cells) and normal pancreas (Advion BioServices, Ithaca, N.Y.). […]
The pancreatectomy specimens were evaluated by a pathologist. […] The locations of the tumor biopsy samples that were used to quantify gemcitabine incorporation were recorded as either inner or outer tumor. […] These specimens were then processed as previously described for quantitative analysis of gemcitabine DNA incorporation (Advion Biosciences). […]

[3] = Toxicity monitoring in clinical trial of intraoperative gemcitabine infusion; type: in vivo, human
Description: Pancreatic resection was performed using standard techniques and major surgical complications were defined as previously described. […] Serum samples were collected at regular intervals during the operation to determine gemcitabine pharmacokinetics. The MD Anderson Data and Safety Monitoring Board oversaw the study. Drug toxicities were evaluated according to Common Terminology Criteria for Adverse Events version 3.0. Daily postoperative labs including absolute neutrophil counts (ANC) and platelet counts were drawn. Patients received full supportive care and the use of growth factors was permitted for myelosuppression (ANC<0.5×10^9). There were 3 patients with grade III neutropenia or leukopenia, and 3 patients with grade II neutropenia. All cytopenias were transient with nadir at approximately postoperative day 6.

[4] = breast tumors of patients; cited from earlier work
[5] = 12 PDAC patients, IV 500 or 1000 mg/m^2 at 10 mg/m^2/min during resection, CTCAE version 3.0

| Compound | differences in gemcitabine incorporation into the primary tumors [1] | gemcitabine incorporation in the tumors relative to normal pancreas ([2]; 12 patients with localized primary PDAC) | drug delivery to tumor ([2]; intraoperative gemcitabine infusion trial) | thrombocytopenia ([3]; 12 PDAC patients, intraoperative IV infusion) | patients with grade II neutropenia [3, 5] | patients with grade III neutropenia or leukopenia [3, 5] | nadir of cytopenias ([3]; all cytopenias transient) | infectious complications ([3]; whole cohort) | intra-tumoral heterogeneity in delivery [4] |
| --- | --- | --- | --- | --- | --- | --- | --- | --- | --- |
| Nc1ccn([C@@H]2O[C@H](CO)[C@@H](O)C2(F)F)c(=O)n1 [gemcitabine] | up to 5 fold | ranged from sub- to supra-normal pancreas levels | measureable drug delivery in all patients | No significant thrombocytopenia | 3 patients | 3 patients | ~6 postoperative day | no infectious complications | – |
| COc1cccc2c1C(=O)c1c(O)c3c(c(O)c1C2=O)C[C@@](O)(C(=O)CO)C[C@@H]3O[C@H]1C[C@H](N)[C@H](O)[C@H](C)O1 [doxorubicin] | – | – | – | – | – | – | – | – | some parts of the tumor not receiving any drug |
